Test results published in patent publication US20250263415A1, “TERTIARY AMIDE DERIVATIVES SUBSTITUTED WITH 4-MEMBERED RING STRUCTURE” (Sumitomo Pharma Co., Ltd., priority 2024, published 2025).
Converted amounts (≈) assume the structure as drawn. Where two headings read alike, the source gives them in different places. Values belong to the molecule of their own block, whether it stands above or below them.

What was measured:
[1] = Pharmacokinetic study in mice; type: in vivo; conditions: for BA: oral 10 mg/kg vs intravenous 1 mg/kg
Description: The test compound was administered to 7-week-old female BALE/c (BALB/cAnN CrlCrlj) mice intravenously (dosage: 1 mg/kg) in a 50% PEG solution (0.01 mol/L HCl) or orally (dosage: 10 mg/kg) in a 0.5% methylcellulose aqueous solution, and blood was collected at the following times: • Intravenous administration: 5 min, 15 min, 30 min, 1 hr, 2 hr, 4 hr, 6 hr, and 24 hr after administration • Oral administration: 15 min, 30 min, 1 hr, 2 hr, 4 hr, 6 hr, and 24 hr after administration
The collected blood was centrifuged at 3000 rpm×10 min using a refrigerated centrifuge set at 4° C., and the obtained plasma was measured by LC-MS. A calibration curve was prepared from the value (peak ratio) obtained by dividing the peak area of the test substance by the peak area of the internal standard substance in MS and the concentration of the plasma calibration curve sample. The concentration in the sample was calculated from the peak ratio and the calibration curve of each sample.

[2] = Solubility test; type: physicochemical; conditions: for solubility: aqueous buffer, thermodynamic from solid
Description: The solubility was measured for Examples 7, 10, 20, 23, 24, and 30 to 34, Comparative Example 1, and Comparative Example 2. The test compound was added to 10 mmol/L glycine buffer (pH 2.0) and 10 mmol/L citrate buffer (pH 3.0), and the mixture was stored in a thermostatic chamber at 5° C. After standing overnight, the mixture was filtered through a membrane filter, and the concentration of the filtrate was measured by HPLC.
The HPLC measurement conditions are as follows.
HPLC conditions • Column: Acquity UPLC BEH C18, 1.7 μm, 50×2.1 mm • Column temperature: 40° C. • Mobile phase: A: 0.1% trifluoroacetic acid-containing water • B: acetonitrile • A/B (min): 95/5 (0)→0/100 (3.5)→0/100 (4)→95/5 (4.01)→95/5 (5) • Flow rate: 0.8 mL/min • Detection: UV visible detector, measurement wavelength 254 nm • Injection volume: 5 μL or • Column: Acquity UPLC BEH C18, 1.7 μm, 50×2.1 mm • Column temperature: 40° C. • Mobile phase: A: 0.1% trifluoroacetic acid-containing water • B: acetonitrile • A/B (min): • 80/20 (0)→40/60 (3.0)→0/100 (3.5)→0/100 (4)→80/20 (4.01)→80/20 (5) • Flow rate: 0.8 mL/min • Detection: UV visible detector, measurement wavelength 254 nm • Injection volume: 2 μL or • Column: Acquity UPLC BEH C18, 1.7 μm, 50×2.1 mm • Column temperature: 40° C. • Mobile phase: A: 0.1% trifluoroacetic acid-containing water • B: acetonitrile • A/B (min): • 80/20 (0)→40/60 (3.0)→0/100 (3.5)→0/100 (4)→100/0 (4.01)→100/0 (5) • Flow rate: 0.8 mL/min • Detection: UV visible detector, measurement wavelength 254 nm • Injection volume: 3 μL

[3] = biological target: hDAT (Homo sapiens (Human), UniProt Q01959); test: Dopamine receptor inhibitory activity evaluation (binding assay, CHO-S/hDAT membranes); conditions: for Inhibitory effect on dopamine receptors (in words): off-target
Description: The binding evaluation assay was outsourced to Eurofins. Specifically, CHO—S/hDAT cells were homogenized in an incubation buffer consisting of 50 mmol/L Tris-HCl, pH 7.4, 100 mmol/L NaCl, 1 μmol/L Leupeptin, and 10 μmol/L PMSF. The membrane pellet obtained by centrifugation was resuspended in the incubation buffer to prepare a membrane preparation. The test compound (1-10 μmol/L DMSO solution), the membrane preparation, and 0.15 nmol/L […] were mixed and incubated at 4° C. for 180 minutes. The cell membrane-[^125I]RTI-55 complex was bound to a GF/B filter mat by vacuum filtration and washed with 50 mmol/L Tris-HCl, pH 7.4. The effect on the receptor was assessed by measuring radioactivity using a scintillation counter.

[4] = biological target: hSERT (Homo sapiens (Human), UniProt P31645); test: Serotonin receptor inhibitory activity evaluation (binding assay, HEK293/hSERT membranes); conditions: for Inhibitory effect on serotonin receptors (in words): off-target
Description: The binding evaluation assay was outsourced to Eurofins. Specifically, HEK293/hSERT cells were homogenized in a buffer consisting of 100 mmol/L NaCl, 1 μmol/L Leupeptin, 10 μmol/L PMSF, and 50 mmol/L Tris-HCl (pH7.4). The membrane pellet obtained by centrifugation was resuspended in an incubation buffer consisting of 50 mmol/L Tris-HCl (pH 7.4), 120 mmol/L NaCl, and 5 mmol/L KCl to prepare a membrane preparation. The test compound (1-10 μmol/L DMSO solution), the membrane preparation, and 0.4 nmol/L [^3H]Paroxetin were mixed and incubated at 25° C. for 60 minutes. The cell membrane-[^3H]Paroxetin complex was bound to a GF/B filter mat by vacuum filtration and washed with 50 mmol/L Tris-HCl (pH 7.4). The effect on the receptor was assessed by measuring radioactivity using a scintillation counter.

[5] = system: G-401 xenograft; test: Drug efficacy evaluation by intravenous administration using G-401 xenograft mice model; type: in vivo; conditions: G-401 xenograft model
Description: G-401 cells (ATCC) were intradermally transplanted into 4-7-week-old BALB/cAnNCrj-nu/nu mice (CAnN.Cg-Foxnl/CrlCrlj, Jackson Laboratory Japan) at 5×10^5 cells/mouse. After confirming the engraftment of G-401 cells 10-40 days after transplantation, the test compound suspended in a solvent such as 10 mmol/L glycine buffer solution (pH 2.0) was administered via the tail vein at least once a week at a dose of 0.015-20 mg/kg. The tumor volume was measured over time from the start of administration, and the effect of tumor volume reduction by administration of the test compound was evaluated. The tumor volume can be calculated from the following equation using the minor axis and major axis of the tumor measured with an electronic caliper (Mitutoyo).
A control administration group administered with only a solvent such as 10 mmol/L glycine buffer solution (pH 2.0) and a test compound administration group were compared, and the antitumor effect was evaluated by calculating T/C from the following equation.

[6] = system: G-401 cells; test: Cell proliferation inhibition experiment using G-401 cells; type: cell-based
Description: G-401 cells (derived from malignant rhabdoid tumor) were obtained from the American Type Culture Collection (ATCC). G-401 cells were cultured in McCoy's 5A medium containing 10% fetal bovine serum and 1% penicillin/streptomycin under conditions of 37° C. and 5% CO2.
500 cells per well were seeded in a 384-well plate. One day after seeding, Examples 1 to 35 were added so that the final concentration of DMSO was 0.1%, and the cells were cultured for 3 days. After the culture was completed, the cell viability was measured using CellTiter-Glo Luminescent Cell Viability Assay (Promega, G7570).

[7] = biological target: recombinant p300 (Homo sapiens (Human), UniProt Q09472); test: HAT activity inhibition experiment (SensoLyte HAT(p300) Assay Kit); type: biochemical; conditions: recombinant p300, acetyl CoA, histone H3 peptide
Description: The HAT activity inhibitory ability of HAT inhibitors was evaluated using SensoLyte HAT(p300) Assay Kit (ANASPEC, AS-72172). Specifically, 7.5 μL of the compound of Examples […] diluted with assay buffer was added to 7.5 μL of recombinant p300 solution diluted 10 times with assay buffer, and the mixture was incubated at room temperature for 10 minutes. 7.5 μL of acetyl CoA solution diluted 10 times with assay buffer and 15 μL of histone H3 peptide diluted 10 times with assay buffer were added thereto, and the mixture was incubated at 37° C. for 30 minutes. 37.5 μL of Stop Solution was added to stop the reaction. 75 μL of p300 Developer solution diluted 50 times with assay buffer was added, and the mixture was incubated at room temperature for 30 minutes under light-shielded conditions. The fluorescence at 513 nm when irradiated with 389 nm excitation light was measured using a multiplate reader.

Chain of hDAT (Q01959 whole entry): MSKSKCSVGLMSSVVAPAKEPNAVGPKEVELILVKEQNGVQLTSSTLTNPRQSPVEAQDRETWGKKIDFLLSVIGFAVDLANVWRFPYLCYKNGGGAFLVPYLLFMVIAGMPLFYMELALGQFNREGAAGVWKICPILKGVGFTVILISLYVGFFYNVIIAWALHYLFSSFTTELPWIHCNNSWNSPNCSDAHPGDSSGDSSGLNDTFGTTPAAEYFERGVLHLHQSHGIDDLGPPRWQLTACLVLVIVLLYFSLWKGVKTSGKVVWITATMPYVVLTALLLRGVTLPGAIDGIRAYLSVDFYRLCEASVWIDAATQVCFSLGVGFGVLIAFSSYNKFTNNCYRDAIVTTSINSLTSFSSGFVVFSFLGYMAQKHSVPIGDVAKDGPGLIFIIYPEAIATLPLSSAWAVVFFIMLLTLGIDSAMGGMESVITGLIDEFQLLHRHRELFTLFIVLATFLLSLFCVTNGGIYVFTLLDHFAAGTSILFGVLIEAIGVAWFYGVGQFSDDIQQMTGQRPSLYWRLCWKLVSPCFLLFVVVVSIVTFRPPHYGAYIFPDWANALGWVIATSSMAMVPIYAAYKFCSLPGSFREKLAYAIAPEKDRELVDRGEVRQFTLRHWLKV
Chain of hSERT (P31645 whole entry): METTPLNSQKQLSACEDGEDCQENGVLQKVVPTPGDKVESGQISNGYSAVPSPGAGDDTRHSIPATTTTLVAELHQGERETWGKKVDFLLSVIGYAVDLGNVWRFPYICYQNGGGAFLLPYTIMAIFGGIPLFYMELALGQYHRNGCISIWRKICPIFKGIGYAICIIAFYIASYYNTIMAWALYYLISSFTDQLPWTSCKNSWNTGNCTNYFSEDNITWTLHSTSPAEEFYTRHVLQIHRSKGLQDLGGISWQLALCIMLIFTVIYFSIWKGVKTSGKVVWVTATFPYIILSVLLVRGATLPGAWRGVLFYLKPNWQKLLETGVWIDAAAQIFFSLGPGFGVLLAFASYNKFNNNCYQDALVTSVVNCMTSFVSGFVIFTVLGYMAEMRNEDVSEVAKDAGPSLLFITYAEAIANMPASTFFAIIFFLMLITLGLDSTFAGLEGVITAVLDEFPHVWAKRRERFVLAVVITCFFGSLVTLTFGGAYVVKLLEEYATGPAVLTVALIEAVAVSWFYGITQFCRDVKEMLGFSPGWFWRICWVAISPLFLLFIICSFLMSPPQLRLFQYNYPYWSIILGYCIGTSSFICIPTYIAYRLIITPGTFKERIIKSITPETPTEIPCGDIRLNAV
Chain of recombinant p300 (Q09472 whole entry): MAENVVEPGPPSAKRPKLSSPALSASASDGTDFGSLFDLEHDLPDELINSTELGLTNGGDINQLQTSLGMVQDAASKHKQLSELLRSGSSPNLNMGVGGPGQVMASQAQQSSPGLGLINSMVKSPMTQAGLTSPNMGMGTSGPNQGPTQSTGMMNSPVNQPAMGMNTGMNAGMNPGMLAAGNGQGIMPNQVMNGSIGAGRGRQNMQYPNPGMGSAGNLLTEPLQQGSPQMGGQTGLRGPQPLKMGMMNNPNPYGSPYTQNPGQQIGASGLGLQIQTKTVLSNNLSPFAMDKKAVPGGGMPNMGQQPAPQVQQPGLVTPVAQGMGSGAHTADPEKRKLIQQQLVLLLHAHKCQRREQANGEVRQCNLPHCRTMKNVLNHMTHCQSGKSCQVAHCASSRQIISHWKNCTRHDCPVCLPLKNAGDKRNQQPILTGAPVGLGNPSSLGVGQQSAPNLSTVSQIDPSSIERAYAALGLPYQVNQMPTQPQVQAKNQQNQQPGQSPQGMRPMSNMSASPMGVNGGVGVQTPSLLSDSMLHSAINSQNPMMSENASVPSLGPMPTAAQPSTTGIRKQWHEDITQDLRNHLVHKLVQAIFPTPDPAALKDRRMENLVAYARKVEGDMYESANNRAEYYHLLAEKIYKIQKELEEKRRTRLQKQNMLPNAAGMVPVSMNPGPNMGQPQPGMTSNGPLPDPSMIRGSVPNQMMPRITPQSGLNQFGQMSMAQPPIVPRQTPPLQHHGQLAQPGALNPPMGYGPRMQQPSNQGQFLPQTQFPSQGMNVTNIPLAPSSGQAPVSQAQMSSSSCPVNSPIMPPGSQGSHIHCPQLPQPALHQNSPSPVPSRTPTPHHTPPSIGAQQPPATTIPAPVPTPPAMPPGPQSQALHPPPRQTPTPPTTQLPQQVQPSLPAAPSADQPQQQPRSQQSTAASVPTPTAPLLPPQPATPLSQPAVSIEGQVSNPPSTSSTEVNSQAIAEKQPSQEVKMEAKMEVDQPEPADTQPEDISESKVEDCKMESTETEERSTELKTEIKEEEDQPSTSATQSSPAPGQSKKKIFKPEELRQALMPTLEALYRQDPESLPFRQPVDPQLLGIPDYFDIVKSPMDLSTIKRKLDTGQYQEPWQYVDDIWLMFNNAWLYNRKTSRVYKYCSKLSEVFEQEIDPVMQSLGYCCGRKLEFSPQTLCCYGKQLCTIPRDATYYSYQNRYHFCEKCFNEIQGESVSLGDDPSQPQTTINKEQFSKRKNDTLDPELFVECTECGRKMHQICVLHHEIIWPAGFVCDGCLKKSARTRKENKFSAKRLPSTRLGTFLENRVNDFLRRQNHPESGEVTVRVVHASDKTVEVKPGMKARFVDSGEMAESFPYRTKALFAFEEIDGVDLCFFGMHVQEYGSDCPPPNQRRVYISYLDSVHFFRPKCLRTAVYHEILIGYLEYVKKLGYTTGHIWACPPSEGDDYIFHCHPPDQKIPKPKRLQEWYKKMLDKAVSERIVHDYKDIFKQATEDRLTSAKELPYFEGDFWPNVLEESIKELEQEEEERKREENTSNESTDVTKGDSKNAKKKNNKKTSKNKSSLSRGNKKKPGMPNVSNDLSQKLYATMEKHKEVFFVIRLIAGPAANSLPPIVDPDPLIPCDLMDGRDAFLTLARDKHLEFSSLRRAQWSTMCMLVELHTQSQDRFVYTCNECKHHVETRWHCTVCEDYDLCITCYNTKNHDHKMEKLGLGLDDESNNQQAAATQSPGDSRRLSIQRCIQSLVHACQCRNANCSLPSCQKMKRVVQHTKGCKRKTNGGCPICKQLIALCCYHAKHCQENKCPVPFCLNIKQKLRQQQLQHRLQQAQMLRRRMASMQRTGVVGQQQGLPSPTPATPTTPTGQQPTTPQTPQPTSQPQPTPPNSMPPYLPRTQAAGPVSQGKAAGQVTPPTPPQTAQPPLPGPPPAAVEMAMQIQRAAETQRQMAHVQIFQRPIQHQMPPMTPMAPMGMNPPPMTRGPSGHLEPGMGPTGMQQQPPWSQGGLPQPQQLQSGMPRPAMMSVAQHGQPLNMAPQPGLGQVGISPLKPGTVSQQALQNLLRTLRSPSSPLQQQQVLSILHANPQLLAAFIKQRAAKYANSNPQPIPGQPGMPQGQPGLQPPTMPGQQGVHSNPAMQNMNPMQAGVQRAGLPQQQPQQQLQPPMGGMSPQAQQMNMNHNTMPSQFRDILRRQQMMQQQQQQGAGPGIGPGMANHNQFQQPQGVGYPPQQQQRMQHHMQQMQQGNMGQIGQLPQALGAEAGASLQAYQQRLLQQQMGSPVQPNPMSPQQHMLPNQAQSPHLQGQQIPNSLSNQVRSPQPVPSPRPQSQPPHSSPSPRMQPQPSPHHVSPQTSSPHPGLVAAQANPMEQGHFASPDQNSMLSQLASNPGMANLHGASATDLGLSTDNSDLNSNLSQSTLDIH

Structure (SMILES): CNC(=O)Nc1ccc2c(c1)CC[C@@]21OC(=O)N(CC(=O)N2[C@@H](C)CC[C@H]2c2cc(F)c(F)c(F)c2)C1=O [Comparative Example 2, reference compound]
- Solubility in pH 3.0 buffer ([2]; 10 mmol/L citrate buffer (pH 3.0), 5° C., overnight): 0.005 mg/mL
- Solubility in pH 2.0 buffer ([2]; 10 mmol/L glycine buffer (pH 2.0), 5° C., overnight): 0.004 mg/mL
- solubility ([2]; 10 mmol/L citrate buffer (pH 3.0), 5° C., overnight, read-out: Solubility in pH 3.0 buffer): 5 µg/mL (≈ 9.43 µM)
- solubility ([2]; 10 mmol/L glycine buffer (pH 2.0), 5° C., overnight, read-out: Solubility in pH 2.0 buffer): 4 µg/mL (≈ 7.54 µM)
- inhibition at 10 µM ([3]; 10 μM, CHO-S/hDAT membrane preparation): 88%
- Inhibitory effect on dopamine receptors (in words) [3]: strong inhibitory effect
- inhibition at 10 µM ([4]; 10 μM, HEK293/hSERT membrane preparation): 76%
- Inhibitory effect on serotonin receptors (in words) [4]: strong inhibitory effect

Structure (SMILES): CNC(=O)Cn1cc(-c2ccc3c(c2)[C@H](F)C[C@]32NC(=O)N(CC(=O)N(Cc3ccc(F)cc3)[C@@H](C)C(F)(F)F)C2=O)cn1 [Comparative Example 1, reference compound]
- Antitumor effect, intravenous administration (in words) [5]: no antitumor effect

Structure (SMILES): CN1CC(N(Cc2ccc(F)cc2)C(=O)CN2C(=O)N[C@]3(C[C@@H](F)c4cc(-c5cnn(C6CCOCC6)c5)ccc43)C2=O)(C(F)(F)F)C1 [Example 19, 2-{(1′S,3′R)-3′-fluoro-5′-[1-(oxan-4-yl)-1H-pyrazol-4-yl]-2,5-dioxo-2′,3′-dihydrospiro[imidazolidine-4,1′-inden]-1-yl}-N-[(4-fluorophenyl)methyl]-N-[1-methyl-3-(trifluoromethyl)azetidin-3-yl]acetamide]
- Cell proliferation inhibitory effect on G-401 cells (in words) [6]: strong cell proliferation inhibitory effect

Structure (SMILES): CN1CC(N(Cc2ccc(F)cn2)C(=O)CN2C(=O)N[C@]3(C[C@@H](F)c4cc(-c5cnn(CC6COC6)c5)ccc43)C2=O)(C(F)(F)F)C1 [Example 25, 2-[(1′S,3′R)-3′-fluoro-5′-{1-[(oxetan-3-yl)methyl]-1H-pyrazol-4-yl}-2,5-dioxo-2′,3′-dihydrospiro[imidazolidine-4,1′-inden]-1-yl]-N-[(5-fluoropyridin-2-yl)methyl]-N-[1-methyl-3-(trifluoromethyl)azetidin-3-yl]acetamide]
- Inhibitory effect on dopamine receptors (in words) [3]: did not show strong inhibitory activity
- Inhibitory effect on serotonin receptors (in words) [4]: did not show strong inhibitory activity

Further lines, with some results ahead:

- BA [1]: 30.0%
Structure (SMILES): CN1CC(N(Cc2ccc(F)cc2)C(=O)CN2C(=O)N[C@]3(CCc4cc(-c5cnn(C)c5)ccc43)C2=O)(C(F)(F)F)C1 [Example 12, N-[(4-fluorophenyl)methyl]-2-[(1′S)-5′-(1-methyl-1H-pyrazol-4-yl)-2,5-dioxo-2′,3′-dihydrospiro[imidazolidine-4,1′-inden]-1-yl]-N-[1-methyl-3-(trifluoromethyl)azetidin-3-yl]acetamide]

- Solubility (in words) ([2]; pH 2.0 and pH 3.0 buffers): high solubility
- Pharmacokinetics (in words) [1]: excellent pharmacokinetics
- BA [1]: 47.0%
- Inhibitory effect on dopamine receptors (in words) [3]: did not show strong inhibitory activity
- Inhibitory effect on serotonin receptors (in words) [4]: did not show strong inhibitory activity
Structure (SMILES): CN1CC(N(Cc2ccc(F)cn2)C(=O)CN2C(=O)N[C@]3(C[C@@H](F)c4cc(-c5cnn(C6COC6)c5)ccc43)C2=O)(C(F)(F)F)C1 [Example 24, 2-{(1′S,3′R)-3′-fluoro-5′-[1-(oxetan-3-yl)-1H-pyrazol-4-yl]-2,5-dioxo-2′,3′-dihydrospiro[imidazolidine-4,1′-inden]-1-yl}-N-[(5-fluoropyridin-2-yl)methyl]-N-[1-methyl-3-(trifluoromethyl)azetidin-3-yl]acetamide]
- Antitumor effect, intravenous administration (in words) [5]: strong antitumor effects

- IC50 [7]: 17.2 nM
Structure (SMILES): O=C1N[C@]2(CCc3cc(-c4cnn(C5CN(C6COC6)C5)c4)ccc32)C(=O)N1CC(=O)N(Cc1ccc(F)cn1)C1(C(F)(F)F)CC(F)(F)C1 [Example 8, N-[3,3-difluoro-1-(trifluoromethyl)cyclobutyl]-N-[(5-fluoropyridin-2-yl)methyl]-2-[(1′S)-5′-{-[1-(oxetan-3-yl)azetidin-3-yl]-1H-pyrazol-4-yl}-2,5-dioxo-2′,3′-dihydrospiro[imidazolidine-4,1′-inden]-1-yl]acetamide]

- IC50 [7]: 0.6 nM
Structure (SMILES): O=C1N[C@]2(C[C@@H](F)c3cc(-c4cnn(C5CN(C6COC6)C5)c4)ccc32)C(=O)N1CC(=O)N(Cc1ccc(F)cn1)C1(C(F)(F)F)CC(F)(F)C1 [Example 9, N-[3,3-difluoro-1-(trifluoromethyl)cyclobutyl]-2-[(1′S,3′R)-3′-fluoro-5′-{1-[1-(oxetan-3-yl)azetidin-3-yl]-1H-pyrazol-4-yl}-2,5-dioxo-2′,3′-dihydrospiro[imidazolidine-4,1′-inden]-1-yl]-N-[(5-fluoropyridin-2-yl)methyl]acetamide]
